Data from ChEMBL document CHEMBL4725253, “Discovery of quinoline-based irreversible BTK inhibitors” (Bioorg Med Chem Lett, 2020).

What was measured:
[1] = Inhibition of anti-human alphaIgM-stimulated MIP1beta production in human Ramos B cells preincubated for 1 hr followed by anti-human IgM stimulation for 6 hrs by ELISA; format: functional, cell-based
[2] = molecular target: Epidermal growth factor receptor (Homo sapiens, UniProt P00533); assay: Inhibition of EGFR (unknown origin) expressed in baculovirus system using fluorescein labeled PDGFR-tide substrate peptide preincubated for 60 mins followed by ATP addition and measured after 60 mins by IMAP assay
[3] = Inhibition of goat anti-human IgM F(ab')-stimulated CD69 cell surface expression in human PBMC preincubated for 2 hrs followed by anti-human IgM stimulation for 18 hrs by flow cytometric analysis; format: functional, tissue-based
Blood = assay: Inhibition of mouse anti-human anti-IgD-stimulated CD69 cell surface expression in human whole blood preincubated for 2 hrs followed by anti-human anti-IgD stimulation for 18 hrs by flow cytometric analysis; format: functional, tissue-based
[4] = molecular target: T1, Tyrosine-protein kinase ITK/TSK (Homo sapiens, UniProt Q08881); assay: Inhibition of recombinant full length human GST-tagged ITK expressed in baculovirus expression system using tyrosine-1 peptide as substrate preincubated for 1 hr in presence of ATP by Z'-LYTE assay
T1 sequence (Q08881 whole entry): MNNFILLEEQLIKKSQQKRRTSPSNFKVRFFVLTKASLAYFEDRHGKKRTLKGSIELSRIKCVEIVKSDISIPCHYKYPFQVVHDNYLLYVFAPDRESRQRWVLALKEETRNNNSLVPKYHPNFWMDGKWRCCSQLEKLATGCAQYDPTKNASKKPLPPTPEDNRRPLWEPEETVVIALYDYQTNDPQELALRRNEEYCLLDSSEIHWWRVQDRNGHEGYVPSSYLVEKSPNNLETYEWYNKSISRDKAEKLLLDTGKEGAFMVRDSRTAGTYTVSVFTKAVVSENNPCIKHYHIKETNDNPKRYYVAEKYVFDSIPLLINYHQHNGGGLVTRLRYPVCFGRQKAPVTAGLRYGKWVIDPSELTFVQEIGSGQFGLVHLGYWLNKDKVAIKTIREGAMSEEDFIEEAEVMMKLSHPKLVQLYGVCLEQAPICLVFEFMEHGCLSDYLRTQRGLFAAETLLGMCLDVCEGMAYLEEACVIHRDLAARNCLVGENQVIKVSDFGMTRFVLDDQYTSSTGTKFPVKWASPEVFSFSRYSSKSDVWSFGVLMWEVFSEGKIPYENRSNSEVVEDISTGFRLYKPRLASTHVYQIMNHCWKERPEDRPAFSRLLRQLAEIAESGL

[5] = molecular target: T2, Tyrosine-protein kinase TXK (Homo sapiens, UniProt P42681); assay: Inhibition of recombinant human N-terminal GST-tagged TXK (260 to 527 residues) expressed in baculovirus expression system using tyrosine-6 peptide as substrate preincubated for 1 hr in presence of ATP by Z'-LYTE assay
T2 sequence (P42681 whole entry): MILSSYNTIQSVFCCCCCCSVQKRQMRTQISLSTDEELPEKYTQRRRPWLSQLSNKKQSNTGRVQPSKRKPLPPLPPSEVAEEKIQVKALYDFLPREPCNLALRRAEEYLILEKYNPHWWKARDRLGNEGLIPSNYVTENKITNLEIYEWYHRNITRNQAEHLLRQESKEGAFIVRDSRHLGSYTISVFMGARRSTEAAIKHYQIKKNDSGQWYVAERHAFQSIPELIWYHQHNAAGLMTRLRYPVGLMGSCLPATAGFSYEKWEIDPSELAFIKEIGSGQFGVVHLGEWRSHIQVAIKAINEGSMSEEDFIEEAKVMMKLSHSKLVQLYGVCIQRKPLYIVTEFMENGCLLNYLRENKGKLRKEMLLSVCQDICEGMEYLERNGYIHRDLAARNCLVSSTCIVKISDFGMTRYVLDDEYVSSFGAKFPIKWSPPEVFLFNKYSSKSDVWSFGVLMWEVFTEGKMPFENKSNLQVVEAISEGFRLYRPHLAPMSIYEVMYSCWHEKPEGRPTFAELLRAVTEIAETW

[6] = molecular target: T3, Tyrosine-protein kinase JAK3 (Homo sapiens, UniProt P52333); assay: Inhibition of recombinant human GST-tagged JAK3 catalytic domain (781 to 1124 residues) expressed in baculovirus expression system using tyrosine-6 peptide as substrate preincubated for 1 hr in presence of ATP by Z'-LYTE assay
T3 sequence (P52333 whole entry): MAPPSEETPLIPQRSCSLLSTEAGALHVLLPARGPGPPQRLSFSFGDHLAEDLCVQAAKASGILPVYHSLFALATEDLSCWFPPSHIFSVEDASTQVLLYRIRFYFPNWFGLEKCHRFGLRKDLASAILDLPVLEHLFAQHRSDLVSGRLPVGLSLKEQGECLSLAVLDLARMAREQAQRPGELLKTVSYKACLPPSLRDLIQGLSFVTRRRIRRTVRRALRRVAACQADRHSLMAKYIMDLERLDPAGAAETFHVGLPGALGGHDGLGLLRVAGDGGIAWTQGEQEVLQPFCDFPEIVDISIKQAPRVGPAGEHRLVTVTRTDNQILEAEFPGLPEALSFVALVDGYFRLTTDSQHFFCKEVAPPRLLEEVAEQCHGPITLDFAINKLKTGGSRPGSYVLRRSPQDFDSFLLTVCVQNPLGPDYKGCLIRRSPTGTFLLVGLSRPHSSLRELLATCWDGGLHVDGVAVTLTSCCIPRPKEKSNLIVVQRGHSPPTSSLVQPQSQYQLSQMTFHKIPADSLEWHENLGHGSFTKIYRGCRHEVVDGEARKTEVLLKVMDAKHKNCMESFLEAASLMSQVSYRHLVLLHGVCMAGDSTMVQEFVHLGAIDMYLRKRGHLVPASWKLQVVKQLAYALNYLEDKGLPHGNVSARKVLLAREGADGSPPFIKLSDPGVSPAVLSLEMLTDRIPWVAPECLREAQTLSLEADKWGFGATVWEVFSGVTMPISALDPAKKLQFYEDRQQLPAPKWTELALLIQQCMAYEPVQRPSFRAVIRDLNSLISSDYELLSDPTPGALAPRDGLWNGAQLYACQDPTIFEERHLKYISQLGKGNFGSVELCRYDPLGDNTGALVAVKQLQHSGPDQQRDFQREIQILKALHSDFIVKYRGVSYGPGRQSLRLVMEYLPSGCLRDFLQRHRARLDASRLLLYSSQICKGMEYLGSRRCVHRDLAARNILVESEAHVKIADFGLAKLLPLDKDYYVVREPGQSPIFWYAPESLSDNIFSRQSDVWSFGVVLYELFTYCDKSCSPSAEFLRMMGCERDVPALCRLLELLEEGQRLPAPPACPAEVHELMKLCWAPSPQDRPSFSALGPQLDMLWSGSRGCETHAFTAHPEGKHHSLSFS

[7] = molecular target: Tyrosine-protein kinase Blk (Homo sapiens, UniProt P51451); assay: Inhibition of recombinant full length human His-tagged BLK cytoplasmic domain expressed in baculovirus expression system using tyrosine-1 peptide as substrate preincubated for 1 hr in presence of ATP by Z'-LYTE assay
Sequence of Tyrosine-protein kinase Blk (P51451 whole entry, the tested form may be a part): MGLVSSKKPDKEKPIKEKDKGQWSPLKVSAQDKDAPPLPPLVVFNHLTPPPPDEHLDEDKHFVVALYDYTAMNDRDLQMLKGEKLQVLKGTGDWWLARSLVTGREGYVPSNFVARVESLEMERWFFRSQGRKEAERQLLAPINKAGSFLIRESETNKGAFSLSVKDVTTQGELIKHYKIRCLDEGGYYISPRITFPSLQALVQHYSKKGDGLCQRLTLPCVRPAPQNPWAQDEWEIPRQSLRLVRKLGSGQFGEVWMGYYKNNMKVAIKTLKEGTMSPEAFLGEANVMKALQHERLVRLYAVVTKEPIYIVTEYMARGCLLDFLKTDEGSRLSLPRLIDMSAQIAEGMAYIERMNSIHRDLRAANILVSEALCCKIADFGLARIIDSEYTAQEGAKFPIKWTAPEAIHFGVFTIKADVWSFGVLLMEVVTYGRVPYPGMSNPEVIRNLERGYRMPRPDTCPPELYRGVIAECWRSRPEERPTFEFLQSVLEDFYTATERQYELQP

Sequence of Epidermal growth factor receptor (P00533 whole entry): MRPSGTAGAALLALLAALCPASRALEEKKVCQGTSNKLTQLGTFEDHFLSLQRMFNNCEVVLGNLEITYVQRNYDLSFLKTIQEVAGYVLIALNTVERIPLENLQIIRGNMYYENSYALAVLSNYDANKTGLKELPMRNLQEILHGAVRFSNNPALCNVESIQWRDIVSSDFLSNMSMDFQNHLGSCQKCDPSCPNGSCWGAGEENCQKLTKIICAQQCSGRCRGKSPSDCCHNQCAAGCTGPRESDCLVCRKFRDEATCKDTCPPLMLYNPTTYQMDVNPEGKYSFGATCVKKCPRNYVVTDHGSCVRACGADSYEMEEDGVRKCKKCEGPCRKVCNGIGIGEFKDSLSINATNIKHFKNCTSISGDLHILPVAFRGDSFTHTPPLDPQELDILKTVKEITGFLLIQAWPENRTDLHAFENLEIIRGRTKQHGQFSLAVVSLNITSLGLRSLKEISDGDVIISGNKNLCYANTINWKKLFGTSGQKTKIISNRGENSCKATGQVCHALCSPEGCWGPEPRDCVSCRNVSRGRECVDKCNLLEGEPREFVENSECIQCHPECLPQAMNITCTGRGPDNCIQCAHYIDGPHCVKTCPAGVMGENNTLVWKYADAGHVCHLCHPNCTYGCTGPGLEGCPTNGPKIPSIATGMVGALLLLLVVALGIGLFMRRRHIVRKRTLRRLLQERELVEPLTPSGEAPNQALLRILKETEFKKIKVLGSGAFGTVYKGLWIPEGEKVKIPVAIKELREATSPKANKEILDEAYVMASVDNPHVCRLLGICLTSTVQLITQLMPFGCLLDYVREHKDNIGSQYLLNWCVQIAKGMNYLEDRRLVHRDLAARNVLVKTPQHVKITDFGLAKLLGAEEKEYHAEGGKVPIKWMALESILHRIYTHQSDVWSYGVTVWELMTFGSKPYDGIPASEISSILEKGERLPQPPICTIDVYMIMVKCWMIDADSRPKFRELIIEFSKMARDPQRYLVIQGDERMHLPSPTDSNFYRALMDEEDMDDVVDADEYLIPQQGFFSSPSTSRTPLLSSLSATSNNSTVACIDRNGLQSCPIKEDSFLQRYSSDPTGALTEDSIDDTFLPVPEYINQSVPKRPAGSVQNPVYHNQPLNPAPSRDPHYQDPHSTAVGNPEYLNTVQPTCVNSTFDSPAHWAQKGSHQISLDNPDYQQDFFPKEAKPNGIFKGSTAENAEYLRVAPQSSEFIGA

EC50 [1] [nM] | IC50 [2] [nM] | EC50 [3] [nM] | EC50 (Blood) [nM] | IC50 [4] [nM] | IC50 [5] [nM] | IC50 [6] [nM] | IC50 [7] [nM] | SMILES
4.1 | 33 | 1.8 | 13 | 916 | 19 | 174 | 8.3 | COc1cc2nccc(Oc3ccc(C(=O)Nc4ccccn4)cc3)c2cc1NC(=O)C#CCCN1CCOCC1
15 | > 1000 | 4.1 | 74 | > 1000 | 229 | > 1000 | 72 | CC#CC(=O)Nc1cc2c(Oc3ccc(C(=O)Nc4ccccn4)cc3)ccnc2cc1OCCN1CCOCC1
22 | 200 | 15 | 167 | > 1000 | 294 | 838 | 21.2 | C=CC(=O)Nc1ccc2nccc(Oc3ccc(C(=O)Nc4cc(CC)ccn4)cc3)c2c1
